{
  "source": "ChEMBL document CHEMBL1154341",
  "about": "“Inhibition of the dimerization and active site of HIV-1 protease by secondary metabolites from the Vietnamese mushroom Ganoderma colossum” (J Nat Prod, 2009)",
  "key": {"[1]": {"molecular_target": "Human immunodeficiency virus type 1 integrase (Human immunodeficiency virus 1, UniProt Q7ZJM1)", "experiment": "Inhibition of HIV1 integrase strand transfer activity"}, "Protease [2]": {"molecular_target": "T1, Protease (Human immunodeficiency virus 1, UniProt Q9YQ12)", "experiment": "Inhibition of HIV1 protease"}, "[3]": {"experiment": "Inhibition of HIV2 protease", "design": "species or system Human immunodeficiency virus 2"}, "Protease [4]": {"molecular_target": "T1, Protease", "experiment": "Inhibition of recombinant HIV1 protease after 30 mins by reverse phase HPLC"}, "[5]": {"molecular_target": "Protease (Human immunodeficiency virus 1) (UniProt Q9YQ12)", "experiment": "(§1) Inhibition of HIV1 protease dimerization by Zhang-Poorman kinetic assay"}, "Protease [6]": {"molecular_target": "T1, Protease", "experiment": "Competitive inhibition of HIV1 protease by Lineweaver-Burke plot analysis"}, "Protease [7]": {"molecular_target": "T1, Protease", "experiment": "as §1"}},
  "note": "The source made the active and inactive calls. The rule behind the calls is not given here.",
  "data": [
    {"smiles": "COc1cc(/C=C/C(=O)CC(=O)/C=C/c2ccc(O)c(OC)c2)ccc1O", "note": "[CURCUMIN]", "values": [
      {"measurement": "IC50", "setting": "[1]", "result": 40, "unit": "µM"},
      {"measurement": "IC50", "setting": "Protease [2]", "result": 100, "unit": "µM"},
      {"measurement": "IC50", "setting": "[3]", "result": 250, "unit": "µM"}
    ]},
    {"smiles": "CC(C)=CCC/C(C)=C/CCC1=C[C@@H](c2cc(O)ccc2O)OC1=O", "note": "[GANOMYCIN I]", "values": [
      {"measurement": "IC50", "setting": "Protease [4]", "result": 21.9, "unit": "µM"}
    ]},
    {"smiles": "CC(C)c1cc2c(c(O)c1O)[C@@]1(C(=O)O)CCCC(C)(C)[C@@H]1CC2", "note": "[CARNOSIC ACID]", "values": [
      {"measurement": "IC50", "setting": "Protease [2]", "result": 0.24, "unit": "µM"}
    ]},
    {"smiles": "CC(C)=CCC/C(C)=C/CC/C(=C/Cc1cc(O)ccc1O)C(=O)O", "note": "[GANOMYCIN B]", "values": [
      {"measurement": "IC50", "setting": "Protease [4]", "result": 2.9, "unit": "µM"},
      {"measurement": "inhibition", "setting": "[5]", "result": "inactive"},
      {"measurement": "Ki", "setting": "Protease [6]", "result": 4, "unit": "µM"}
    ]},
    {"smiles": "CC1=CC[C@H]([C@@H](C)[C@H]2CC[C@@]3(C)C4=C(C=C5C=CC(=O)OC(C)(C)[C@@H]5CC4)CC[C@]23C)OC1=O", "note": "[SCHISANLACTONE A]", "values": [
      {"measurement": "Ki", "setting": "Protease [7]", "result": 17.5, "unit": "µM"}
    ]}
  ]
}
